From ChEMBL document CHEMBL4177750, “Imidazopyrazinones (IPYs): Non-Quinolone Bacterial Topoisomerase Inhibitors Showing Partial Cross-Resistance with Quinolones” (J Med Chem, 2018)
Converted amounts (≈) assume the structure as drawn. The source made the active and inactive calls. The rule behind the calls is not given here.

Legend:
[1] = Cytotoxicity against human HepG2 cells assessed as decrease in cell viability after 40 hrs by Celltiter Glo assay
[2] = Drug uptake in Swiss mouse lung at 30 mg/kg, iv administered as single bolus dose by LC-MS/MS method; assay type: ADME, organism-based; details: in vivo
[3] = Drug metabolism in human liver microsomes at 5 uM after 20 mins in presence of NADPH; assay type: ADME, microsome; details: read-out: Drug metabolism
Klebsiella pneumoniae [4] = experiment: Antibacterial activity against Klebsiella pneumoniae 1161486 after 20 to 22 hrs; assay type: functional
Escherichia coli [5] = experiment: Antibacterial activity against ESBL producing Escherichia coli ATCC 35218 after 20 to 22 hrs; assay type: functional
Staphylococcus aureus [6] = experiment: Antibacterial activity against methicillin-resistant Staphylococcus aureus ATCC 33592 after 20 to 22 hrs in presence of 50% calf fetal serum; assay type: functional, organism-based
[7] = Thermodynamic aqueous solubility of the compound at pH 7.4; details: aqueous solution
[8] = Drug uptake in Swiss mouse kidney at 30 mg/kg, iv administered as single bolus dose by LC-MS/MS method; assay type: ADME, organism-based; details: in vivo
L5178Y [9] = experiment: Genotoxicity in mouse L5178Y cells after 3 hrs in presence of S9 fraction by micronucleus test; assay type: toxicity, cell-based; details: s9, 3 h
[10] = Metabolic stability in mouse plasma at 1 uM after 4 hrs; assay type: ADME, cell-free; details: read-out: Stability
Cytochrome P450 3A4 [11] = biological target: T1, Cytochrome P450 3A4 (Homo sapiens, UniProt P08684); experiment: Inhibition of CYP3A4-mediated midazolam metabolism in human liver microsomes
T1 sequence (P08684 whole entry): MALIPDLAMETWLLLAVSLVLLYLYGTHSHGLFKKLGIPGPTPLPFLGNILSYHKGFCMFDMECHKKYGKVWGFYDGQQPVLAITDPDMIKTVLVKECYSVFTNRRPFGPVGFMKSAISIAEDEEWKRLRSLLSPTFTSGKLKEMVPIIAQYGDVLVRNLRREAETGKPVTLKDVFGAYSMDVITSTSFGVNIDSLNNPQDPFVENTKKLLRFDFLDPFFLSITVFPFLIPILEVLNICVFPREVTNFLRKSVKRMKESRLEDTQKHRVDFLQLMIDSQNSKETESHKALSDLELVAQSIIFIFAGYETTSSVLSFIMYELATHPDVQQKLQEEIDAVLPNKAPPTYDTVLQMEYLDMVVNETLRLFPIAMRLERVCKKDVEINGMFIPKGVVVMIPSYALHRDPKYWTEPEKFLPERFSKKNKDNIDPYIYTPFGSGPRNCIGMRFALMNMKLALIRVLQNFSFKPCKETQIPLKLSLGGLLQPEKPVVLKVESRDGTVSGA

Staphylococcus aureus [12] = experiment: Antibacterial activity against methicillin-resistant Staphylococcus aureus ATCC 33592 after 20 to 22 hrs; assay type: functional
[13] = Half life in Swiss mouse plasma at 30 mg/kg, iv administered as single bolus dose by LC-MS/MS method; assay type: ADME, organism-based
[14] = Metabolic stability in rat plasma at 1 uM after 4 hrs; assay type: ADME, cell-free; details: read-out: Stability
Escherichia coli [15] = experiment: Antibacterial activity against hyperpermeable Escherichia coli D22 harboring LpxC mutant after 20 to 22 hrs
Acinetobacter baumannii [16] = experiment: Antibacterial activity against Acinetobacter baumannii BM4652 harboring adeABC/adeIJK deletion mutant after 20 to 22 hrs; assay type: functional
[17] = biological target: Muscarinic acetylcholine receptor M3 (Homo sapiens) (UniProt P20309); experiment: Inhibition of M3 receptor (unknown origin) at 10 uM relative to control
Muscarinic acetylcholine receptor M3 (Homo sapiens), sequence (P20309 whole entry, looked up): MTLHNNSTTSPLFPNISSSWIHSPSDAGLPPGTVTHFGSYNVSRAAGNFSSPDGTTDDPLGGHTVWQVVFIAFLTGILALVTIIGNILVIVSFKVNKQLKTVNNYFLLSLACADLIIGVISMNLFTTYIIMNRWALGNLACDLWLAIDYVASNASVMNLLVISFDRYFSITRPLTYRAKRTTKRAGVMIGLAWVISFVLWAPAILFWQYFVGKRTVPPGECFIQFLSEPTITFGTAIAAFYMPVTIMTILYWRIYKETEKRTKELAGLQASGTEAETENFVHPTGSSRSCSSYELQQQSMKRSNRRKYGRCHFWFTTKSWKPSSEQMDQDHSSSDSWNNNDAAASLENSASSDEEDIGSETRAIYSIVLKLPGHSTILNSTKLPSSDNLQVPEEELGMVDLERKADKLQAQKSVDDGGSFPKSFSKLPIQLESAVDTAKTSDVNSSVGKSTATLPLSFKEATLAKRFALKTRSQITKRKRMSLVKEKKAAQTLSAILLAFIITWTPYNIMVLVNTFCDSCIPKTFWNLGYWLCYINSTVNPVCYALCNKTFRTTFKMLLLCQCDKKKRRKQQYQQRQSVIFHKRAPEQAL

Escherichia coli [18] = experiment: Antibacterial activity against Escherichia coli K-12 MG1655 after 20 to 22 hrs; details: K-12 substr. MG1655
Escherichia coli [19] = experiment: Antibacterial activity against Escherichia coli ATCC 35218 in Swiss mouse septicemia model assessed as decrease in bacterial burden in blood at 30 mg/kg, iv bid administered at 1 and 3 hrs post infection measured at 4 hrs relative to vehicle-treated control; assay type: functional
[20] = biological target: T2, Muscarinic acetylcholine receptor M1 (Homo sapiens) (UniProt P11229); experiment: Inhibition of M1 receptor (unknown origin) at 10 uM relative to control
T2 sequence (whole entry): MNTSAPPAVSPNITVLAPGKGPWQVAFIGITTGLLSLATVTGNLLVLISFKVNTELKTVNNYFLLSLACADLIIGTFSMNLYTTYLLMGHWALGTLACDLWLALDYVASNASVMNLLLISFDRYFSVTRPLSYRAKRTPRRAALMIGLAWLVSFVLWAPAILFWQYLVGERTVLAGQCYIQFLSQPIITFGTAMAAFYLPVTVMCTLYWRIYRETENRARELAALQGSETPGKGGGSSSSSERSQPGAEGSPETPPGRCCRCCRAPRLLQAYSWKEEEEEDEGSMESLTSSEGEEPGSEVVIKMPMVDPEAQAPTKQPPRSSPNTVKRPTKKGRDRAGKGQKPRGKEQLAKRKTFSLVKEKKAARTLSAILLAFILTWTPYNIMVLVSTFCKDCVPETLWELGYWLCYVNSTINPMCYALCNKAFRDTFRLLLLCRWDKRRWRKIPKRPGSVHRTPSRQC

Klebsiella pneumoniae [21] = experiment: Antibacterial activity against tolC-deficient Klebsiella pneumoniae 1161486a after 20 to 22 hrs; assay type: functional
Escherichia coli [22] = experiment: Antibacterial activity against Escherichia coli ATCC 35218 in Swiss mouse septicemia model assessed as mouse survival at 30 mg/kg, iv bid administered at 1 and 3 hrs post infection measured at 96 hrs relative to vehicle-treated control; assay type: functional; details: ATCC 35218, iv
[23] = Drug uptake in Swiss mouse liver at 30 mg/kg, iv administered as single bolus dose by LC-MS/MS method; assay type: ADME, organism-based; details: in vivo
Escherichia coli [24] = experiment: Antibacterial activity against tolC-deficient Escherichia coli K-12 MG1655 after 20 to 22 hrs; assay type: functional; details: K-12 substr. MG1655
Acinetobacter baumannii [25] = experiment: Antibacterial activity against Acinetobacter baumannii BM4454 after 20 to 22 hrs; assay type: functional
[26] = biological target: Voltage-gated inwardly rectifying potassium channel KCNH2 (Homo sapiens, UniProt Q12809); experiment: Inhibition of human ERG transfected in CHO cells by patch clamp method
Voltage-gated inwardly rectifying potassium channel KCNH2, sequence (Q12809 whole entry): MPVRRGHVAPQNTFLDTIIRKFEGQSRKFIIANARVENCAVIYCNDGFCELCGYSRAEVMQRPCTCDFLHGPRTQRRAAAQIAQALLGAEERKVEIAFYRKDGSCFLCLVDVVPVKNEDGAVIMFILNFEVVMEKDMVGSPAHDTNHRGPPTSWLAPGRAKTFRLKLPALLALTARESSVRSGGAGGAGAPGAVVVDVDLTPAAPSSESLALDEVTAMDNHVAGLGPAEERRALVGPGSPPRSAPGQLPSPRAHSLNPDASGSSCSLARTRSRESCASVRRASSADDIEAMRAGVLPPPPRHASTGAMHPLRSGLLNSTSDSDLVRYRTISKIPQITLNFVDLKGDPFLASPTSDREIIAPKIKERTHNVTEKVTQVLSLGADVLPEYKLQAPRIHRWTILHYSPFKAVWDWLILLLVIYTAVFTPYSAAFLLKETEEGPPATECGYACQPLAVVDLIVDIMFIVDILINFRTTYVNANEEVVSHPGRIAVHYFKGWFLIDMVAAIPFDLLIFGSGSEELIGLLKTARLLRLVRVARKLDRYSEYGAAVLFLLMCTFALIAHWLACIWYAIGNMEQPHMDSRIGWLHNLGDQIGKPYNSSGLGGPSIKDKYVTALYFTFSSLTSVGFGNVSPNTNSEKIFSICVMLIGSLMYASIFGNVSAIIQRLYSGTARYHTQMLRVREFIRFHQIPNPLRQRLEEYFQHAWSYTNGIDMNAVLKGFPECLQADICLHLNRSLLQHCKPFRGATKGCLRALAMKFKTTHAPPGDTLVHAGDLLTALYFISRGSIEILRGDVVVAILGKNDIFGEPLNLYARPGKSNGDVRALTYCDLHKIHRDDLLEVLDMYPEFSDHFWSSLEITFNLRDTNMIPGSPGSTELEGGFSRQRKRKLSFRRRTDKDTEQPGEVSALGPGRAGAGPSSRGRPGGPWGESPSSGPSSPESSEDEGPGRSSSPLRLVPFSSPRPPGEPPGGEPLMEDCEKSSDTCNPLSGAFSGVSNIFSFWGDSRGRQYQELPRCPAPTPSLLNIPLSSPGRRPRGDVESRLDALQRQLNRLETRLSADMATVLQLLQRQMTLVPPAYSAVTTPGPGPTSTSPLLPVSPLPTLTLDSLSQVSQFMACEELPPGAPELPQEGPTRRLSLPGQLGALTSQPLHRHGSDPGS

L5178Y [27] = experiment: Genotoxicity in mouse L5178Y cells after 23 hrs in absence of S9 fraction by micronucleus test; assay type: toxicity, cell-based
[28] = Unbound concentration in Swiss mouse plasma at 30 mg/kg, iv administered as single bolus dose measured at 5 mins by LC-MS/MS method; assay type: ADME, organism-based; details: in vivo
[29] = AUC (0 to last) in Swiss mouse plasma at 30 mg/kg, iv administered as single bolus dose by LC-MS/MS method; assay type: ADME, organism-based; set-up: dose 30 mg/kg, route intravenous, time 0 - last
[30] = Apparent permeability across human Caco2 cells; details: Caco-2
Cytochrome P450 3A4 [31] = biological target: T1, Cytochrome P450 3A4; experiment: Inhibition of CYP3A4-mediated testosterone metabolism in human liver microsomes
Mus musculus [32] = experiment: Time during which free kidney concentration exceeds in vitro MIC for Escherichia coli ATCC 35218 in Swiss mouse at 30 mg/kg, iv administered as single bolus dose by LC-MS/MS method; assay type: ADME, organism-based; details: in vivo
Escherichia coli [33] = experiment: Antibacterial activity against Escherichia coli ATCC 35218 in Swiss mouse septicemia model assessed as mouse survival at 15 mg/kg, iv bid administered at 1 and 3 hrs post infection measured at 96 hrs relative to vehicle-treated control; assay type: functional; details: ATCC 35218, iv
[34] = Drug metabolism in rat liver microsomes at 5 uM after 20 mins in presence of NADPH; assay type: ADME, microsome; details: read-out: Drug metabolism
Mus musculus [35] = experiment: Time during which free liver concentration exceeds in vitro MIC for Escherichia coli ATCC 35218 in Swiss mouse at 30 mg/kg, iv administered as single bolus dose by LC-MS/MS method; assay type: ADME, organism-based; details: in vivo
[36] = Drug metabolism in mouse liver microsomes at 5 uM after 20 mins in presence of NADPH; assay type: ADME, microsome; details: read-out: Drug metabolism
Staphylococcus aureus [37] = experiment: Antibacterial activity against methicillin-resistant Staphylococcus aureus ATCC 33592 after 20 to 22 hrs in presence of 50% mouse serum; assay type: functional, organism-based
[38] = Protein binding in mouse plasma by equilibrium dialysis method; assay type: ADME, cell-free; details: read-out: PPB (converted)
Mus musculus [39] = experiment: Toxicity in Swiss mouse at 30 mg/kg, iv bid administered as bolus dose every 2 hrs measured daily for 5 days; assay type: organism-based; details: in vivo, 120 h
Escherichia coli [40] = experiment: Antibacterial activity against Escherichia coli ATCC 35218 in Swiss mouse septicemia model assessed as decrease in bacterial burden in blood at 15 mg/kg, iv bid administered at 1 and 3 hrs post infection measured at 4 hrs relative to vehicle-treated control; assay type: functional
Mus musculus [41] = experiment: Time during which free lung concentration exceeds in vitro MIC for Escherichia coli ATCC 35218 in Swiss mouse at 30 mg/kg, iv administered as single bolus dose by LC-MS/MS method; assay type: ADME, organism-based; details: in vivo
Pseudomonas aeruginosa [42] = experiment: Antibacterial activity against Pseudomonas aeruginosa PAO750 harboring mexAB-oprM/mexCD-oprJ/mexEF-oprN/mexXY/opmH/mexJK/pscC deletion mutant after 20 to 22 hrs; assay type: functional
Pseudomonas aeruginosa [43] = experiment: Antibacterial activity against Pseudomonas aeruginosa PAO1 after 20 to 22 hrs; assay type: functional

N[C@H]1CCN(c2cc3c(cc2F)n2ncnc2c(=O)n3C2CC2)C1
CC50 at 40 h [1]: > 30 µM | Drug uptake [2]: Active | metabolised at 20 min, 5 µM [3]: 0% | MIC (Klebsiella pneumoniae [4]): 32 µg/mL (≈ 97.5 µM) | MIC (Escherichia coli [5]): 2 µg/mL (≈ 6.09 µM) | Activity (Staphylococcus aureus [6]): Active | solubility thermodynamic [7]: 926 µg/mL (≈ 2820 µM) | Drug uptake [8]: Active | Activity (L5178Y [9]): Toxic | remaining at 4 h, 1 µM [10]: 80 to 120% | IC50 (Cytochrome P450 3A4 [11]): > 30 µM | MIC (Staphylococcus aureus [12]): 4 µg/mL (≈ 12.2 µM) | half-life [13]: 1 h | remaining at 4 h, 1 µM [14]: 80 to 120% | MIC (Escherichia coli [15]): 1 µg/mL (≈ 3.05 µM) | MIC (Acinetobacter baumannii [16]): 4 µg/mL (≈ 12.2 µM) | inhibition [17]: 50 to 60% | MIC (Escherichia coli [18]): 4 µg/mL (≈ 12.2 µM) | Activity (Escherichia coli [19]): 3.2 deltalog10CFU/ml | inhibition [20]: 50 to 60% | MIC (Klebsiella pneumoniae [21]): 0.5 µg/mL (≈ 1.52 µM) | survival at 30 mg/kg (Escherichia coli [22]): 30% | Drug uptake [23]: Active | MIC (Escherichia coli [24]): < 0.125 µg/mL | MIC (Acinetobacter baumannii [25]): > 64 µg/mL | IC50 [26]: > 30 µM | Activity (L5178Y [27]): Toxic | Cp(f) [28]: 2500 ng/mL | AUC(0-t) [29]: 7200 ng·h/mL | Papp [30]: 3.2 ×10⁻⁶ cm/s | IC50 (Cytochrome P450 3A4 [31]): > 30 µM | Time (Mus musculus [32]): 2 h | survival at 15 mg/kg (Escherichia coli [33]): 0% | metabolised at 20 min, 5 µM [34]: 8% | Time (Mus musculus [35]): 2 h | metabolised at 20 min, 5 µM [36]: 8% | Activity (Staphylococcus aureus [37]): Active | fraction unbound [38]: 0.38 | Activity (Mus musculus [39]): Non-Toxic | Activity (Escherichia coli [40]): 1.6 deltalog10CFU/ml | Time (Mus musculus [41]): 2 h | MIC (Pseudomonas aeruginosa [42]): 1 µg/mL (≈ 3.05 µM) | MIC (Pseudomonas aeruginosa [43]): > 64 µg/mL
